The subject of one test is TGF-β1. The following applies: cited from earlier work.
In a further test the test system is IL-6. Briefly: Western blot of atrial tissue. Type of test: in vivo, canine. The following applies: 3 groups. (A western blot detects proteins with antibodies after separation by electrophoresis.)
Test [1] has as its system canines with ventricular tachypacing (VTP)-induced congestive heart failure (CHF). Nature of the test: Echocardiographic monitoring of the VTP-induced CHF model (LV function, LA area, CHF signs). The test is classed as in vivo, canine. The following applies: oral PFD 800 mg three times a day. The source says: Briefly, 15 adult mongrel canines (weight 20 to 32 kgs) were divided into 3 groups (n=5 in each group) as follows: Group 1: Normal; Group 2: CHF canines not treated with PFD (or CHF); and Group 3: CHF canines treated with PFD (or CHF+PFD). […] The CHF and CHF+PFD canines underwent placement of a permanent single-chamber pacemaker with the pacing lead positioned in the right ventricular apex followed by radiofrequency catheter ablation of the AV junction to create complete heart block. Canines in the CHF and CHF+PFD groups underwent 3 weeks of VTP at a rate of 220 bpm. Oral PFD (800 mg three times a day) (InterMune, Brisbane, Calif.) was started 2 days prior to the initiation of VTP and was given for the full duration of the pacing period. The CHF and CHF+PFD groups underwent transesophageal echocardiography at the time of pacemaker implantation and at follow-up. Canines in the paced groups underwent weekly transthoracic echocardiography, weekly ECG monitoring to ensure right ventricular capture, and weekly physical examinations. CHF was established by clinical signs, such as, lethargy, peripheral edema, and mucous membrane color changes. Left atrial (LA) size was determined by measuring the LA area by planimetry from 2-D echocardiographic images during diastole from the 2-chamber views. Left ventricular (LV) systolic function was determined by measuring LV fractional shortening at the level of the papillary muscle. Two repeated measurements were made for LA area and LV fractional shortening and the mean value was used for analyses.

Test [2] has the same test system. Briefly: Open-chest electrophysiology and epicardial mapping (ERP, CV, conduction heterogeneity). Type of test: in vivo, canine. The source says:
Briefly, 15 adult mongrel canines (weight 20 to 32 kgs) were divided into 3 groups (n=5 in each group) as follows: Group 1: Normal; Group 2: CHF canines not treated with PFD (or CHF); and Group 3: CHF canines treated with PFD (or CHF+PFD). […] The CHF and CHF+PFD canines underwent placement of a permanent single-chamber pacemaker with the pacing lead positioned in the right ventricular apex followed by radiofrequency catheter ablation of the AV junction to create complete heart block. Canines in the CHF and CHF+PFD groups underwent 3 weeks of VTP at a rate of 220 bpm. Oral PFD (800 mg three times a day) (InterMune, Brisbane, Calif.) was started 2 days prior to the initiation of VTP and was given for the full duration of the pacing period. During the follow-up EP study, each animal was anesthetized with isoflurane and mechanically ventilated. The pacemaker rate was set at 80 bpm at twice diastolic threshold for the entire EP study. The chest was opened with a midline sternotomy. A pericardial cradle was created, and 4 custom-made, epicardial, high-density plaques (left atrial free wall (LAFW); left atrial Bachmann's bundle (LABB); right atrial free wall (RAFW); right atrial Bachmann's bundle (RABB)) were placed over the atria (512 electrodes with an inter-electrode distance of 2.5 mm), similar to the setup described in Verheule S, et al., Circulation 107:2615-22 (2003) and Sih H J, et al. J Am Coll Cardiol. 36:924-31 (2000). Unipolar electrode signals were acquired (sampling rate 2 kHz) and stored with the UnEmap mapping system (University of Auckland, New Zealand). Electrode pairs on the epicardial plaque were used for bipolar stimulation at twice diastolic threshold. Effective refractory periods (ERPs) were measured at 12 atrial sites (6 in LA, 6 in RA) using the single extrastimulus protocol (S1S2) at an 8-beat drive train basic cycle lengths (BCLs) of 200, 300, and 400 ms. During stimulation of the contralateral Bachmann's bundle, conduction velocity (CV) was calculated between pairs of plaque electrodes perpendicular to the activation wavefront with a custom-written software. Verheule S, et al., Am J Physiol Heart Circ Physiol. 2004; 287:H634-44; and Bayly P V, et al., IEEE Trans Biomed Eng. 1998; 45:563-71. Used as a marker of conduction heterogeneity (Verheule S, et al., Am J Physiol Heart Circ Physiol. 2004; 287:H634-44; Bayly P V, et al., IEEE Trans Biomed Eng. 1998; 45:563-71; and Ausma J, et al., Circulation. 1997; 96:3157-63), the phase difference (ms/mm) was defined as the average difference in activation time between a plaque electrode from all of its neighboring electrodes normalized by the inter-electrode distance. Frequency histograms were constructed for the phase differences within an atrial region. The histograms were summarized as the median phase (P50), and the 5th and 95th percentile phase, or P5 and P95 of the distribution, respectively. Two measures were derived to quantify conduction heterogeneity: 1) absolute conduction heterogeneity, defined as P95-P5 (P95-5), and 2) conduction heterogeneity index, defined as the absolute conduction heterogeneity normalized by the median phase, or P95-5/P50.

These results are taken from patent publication US20120046321A1, “METHODS OF TREATING ATRIAL FIBRILLATION WITH P38 INHIBITOR COMPOUNDS” (INTERMUNE, INC., priority 2005, published 2012).

Entries after “also recorded” stand apart in the source; their conditions may differ. Read-outs that look alike come from different tables or passages of the source.

As to `Cc1ccc(=O)n(-c2ccccc2)c1` [PFD, 5-methyl-1-phenyl-2-(1H)-pyridone], the “Expression of TGF-β1” value with TGF-β1 (animal models of lung fibrosis (Iyer et al.)) is given as “significantly reduce”. In addition, the “Expression of TGF-β1” value in the test on TGF-β1 (hepatic fibrosis (Garcia et al.)) is on record as “significantly reduce”. For the same molecule, the “Expression of TGF-β1” value in the test with TGF-β1 (renal tubulointerstitial fibrosis (Shihab et al.)) was “significantly reduce”. Besides, the “Expression of IL-6” value in the test on IL-6 is “unchanged; also recorded: not markedly different”. Besides, the “LV fractional shortening after 3 weeks of VTP compared with baseline” value in test [1] (CHF+PFD group, p<0.001 vs baseline) is on record as −69±8%. In test [1] (3 weeks VTP), the “CHF signs, CHF vs CHF+PFD” value was “did not appear to be different”; the “Increase in LA area from baseline at each weekly time point, CHF vs CHF+PFD” value is reported as “similar”; the “Inter-group baseline and weekly LV fractional shortening, CHF vs CHF+PFD” value is “similar”. The “LA CVs compared with the untreated group” value in test [2] (3 pacing BCLs) is “non-statistically significant increase”. In addition, the “LA ERPs” value in test [2] (BCLs 200, 300, 400 ms, p=NS vs untreated, p<0.03 vs Normal) is “further lengthening”. The “Conduction heterogeneity index (P95-5/P50) in the LA” value in test [2] (all BCLs, p<0.02 at 300 and 400 ms) is recorded as “reduction”. Moreover, the “Absolute conduction heterogeneity (P95-5) in the LA” value in test [2] (all BCLs, p<0.04 at 400 ms) is “reduction”. Besides, in test [2] (p<0.003 at 400 ms), the “Absolute conduction heterogeneity (P95-5) in the RA” value is reported as “decrease” and the “Conduction heterogeneity index (P95-5/P50) in the RA” value is recorded as “decrease”. The “Local conduction heterogeneity in isochronal activation maps” value in test [2] (pacing CL 300 ms, 4 atrial plaques) was “less”.
